Reference: PubChem BioAssay AID1053166 (Broad Institute, 2014)

system: Vaccinia-infected cells, mCherry/Venus stage reporter fluorescence; assay: inhibition of vaccinia stage-reporter fluorescence – cell-based, dry powder, dose response (AID 1053166)

`Cc1ccccc1-c1ccc(CN(C)C[C@@H]2Oc3cc(C#C[C@@H](C)O)ccc3S(=O)(=O)N([C@@H](C)CO)C[C@@H]2C)cc1` and `C[C@@H](O)C#Cc1ccc2c(c1)O[C@@H](CN(C)Cc1ccc(-c3ccccc3Cl)cc1)[C@@H](C)CN([C@@H](C)CO)S2(=O)=O` are within 1.5-fold of each other in AC50: 1150 nM for the first, 992 nM for the second.

`Cc1cccc(-c2ccc(CN(C)C[C@@H]3Oc4cc(C#C[C@@H](C)O)ccc4S(=O)(=O)N([C@@H](C)CO)C[C@@H]3C)cc2)c1` and `Cc1ccc(-c2ccc(CN(C)C[C@@H]3Oc4cc(C#C[C@@H](C)O)ccc4S(=O)(=O)N([C@@H](C)CO)C[C@@H]3C)cc2)cc1` are within 1.5-fold of each other in AC50: 2370 nM for the first, 1790 nM for the second.
